From US7651661B2, “Medical devices with broad spectrum antimicrobial activity” (Board of Regents, the University of Texas System, priority 2001, dated 2010)

Test system: PS4205 (Pseudomonas aeruginosa)
Assay: Zones of inhibition of impregnated devices, modified Kirby-Bauer technique
Assay type: cell-based
Experimental: Potassium tert-butoxide in THF, 7.35 ml of 1M solution, was added to a solution of CHX diacetate, 1.533 g; 2.45 mmol in 35 ml THF. The resulting heterogeneous solution was stirred for 20 minutes, then added to a solution GV, 1.0 g; 2.45 mmol, in 30 ml THF (GV used as an example of Triarylmethane Dye). The mixture was stirred at ambient conditions for 1 hour, then placed under the hood overnight to evaporate the solvent. The resulting residue was dissolved in 30 ml DCM (or MeOH). When applicable, the base (such as neutral form of chlorhexidine) is added to a stirring solution of dye (such as GV) in DCM and the resulting mixture is stirred for at least 1 h. With anionic dyes, dissolution is achieved with the addition of at least one equivalent of a quaternary amine (such as tetraethylammonium) prior to addition of the base. One-centimeter device segments were immersed in the DCM solution for the appropriate period, generally PVC and PU for 10 minutes; Silicone (Si) and Silk Suture for 2 hours. The devices were removed from the solution, and traces of solution were removed from the lumen when applicable. The impregnated devices were placed under the hood to dry for at least 4 hours, preferably over night, then washed with distilled water until the washings were colorless or very faint, and finally placed under an aseptic hood to dry under ambient conditions for at least 4 hours, preferably overnight.
The antimicrobial activity of impregnated catheters was evaluated in duplicate by a modified Kirby-Bauer technique. BBL Mueller Hinton II agar plates (obtained from Fisher Scientific) were inoculated with 0.5 McFarland of the appropriate microorganism (hospital isolates from the MD Anderson Cancer Center). Then 10 mm segments of impregnated devices were embedded in the inoculated plates and placed in an incubator at about 37° C. for at least 18 hours. Zones of inhibition were measured perpendicular to the long axis of the device. Bioactivity against yeast constituted of two zones; a large outer zone of partial growth inhibition, and an inner smaller zone of complete inhibition. […]

[1] = PVC and silicone (Si) devices impregnated with the reagent alone

SMILES	activity against Pseudomonas aeruginosa [1]	activity against Pseudomonas aeruginosa (after impregnating the surfaces of various polymers, including polyvinylchloride)
[H]/N=C(\N/C(=N/[H])NCCCCCCNC(=N)NC(=N)Nc1ccc(Cl)cc1)Nc1ccc(Cl)cc1 [CHX, chlorhexidine]	no activity	–
CN(C)c1ccc(C(=C2C=CC(=[N+](C)C)C=C2)c2ccc(N(C)C)cc2)cc1 [GV, Gentian violet]	no activity	no activity
